Measured values from patent US4087421A, “Substituted benzodiazepines and method of use” (American Cyanamid Company, priority 1977, dated 1978).
“And” between values parts separate entries of the source, which are not always exact repeats. Identical values can stand only once.

Key:
[1] = Inhibition of tetrabenazine induced depression of exploratory behavior in mice; format: in vivo; settings: for Number Responded/Number Treated: intraperitoneally or orally, 1 h before tetrabenazine 30 mg/kg; for ED50: Mus musculus, calculated by method of Finney, dose column in mg/kg, read-out: ED50 (95% C.L.)
Description: Varying doses of the test compounds are administered intraperitoneally or orally to 5 mice one hour before the administration of tetrabenazine hexamate at an intraperitoneal dose of 30 mg/kg which is known to depress markedly the exploratory behavior of normal mice. Thirty minutes later the mice are tested for their exploratoy behavior. Individual mice are placed in the center of a horizontal disc. Inhibition of the depression induced by tetrabenazine is considered present if the mice perform one or more of the following actions within 10 seconds after being placed on the disc:
(1) Animals move to the edge of the disc and pear over the side.
(2) Animals move 180° in place.
(3) Animals display a head movement of 90° immediately followed by a head movement in the opposite direction of at least 45°.
Administration of the test compounds to additional groups of 5 mice is repeated, the numbers of individual animals showing an anti-depressant response (normal exploratory behavior) is recorded and the results are analyzed by the following scheme (statistically standardized; significant P = less than 0.05).
The results from several dose levels (acceptance in at least two sequential test procedures) are then used to establish the Range of Active Doses.

reversible ptosis test = format: in vivo; settings: oral, rats
Description: A useful test for anti-psychotic activity consists of measuring ptosis in animals.
Ptosis is defined as closure of the palpebral aperture (eyelid) greater than 70%. The compounds to be tested were administered orally to groups of 10 rats each. Periodically after treatment the rats were gently placed on the cage top and examined for 90 seconds for signs of ptosis. This manipulation eliminates spontaneous ptosis. The rats were then dropped from a height of about 18 inches (exteroceptive stimulation) onto the cage top to test for reversibility of ptosis. Reversible ptosis is defined as less than 70% closure of the palpebral aperture for longer than one minute after the exteroceptive stimulation and is indicative of neuroleptic activity of the drug administered.

[2] = reduction of spontaneous motor activity (Animax Activity Counter); format: in vivo; settings: Rattus norvegicus, 5 min; oral, rats, 5 minute period; read-out: MDD50 (effective dose that causes a 50% reduction in motor activity)
Description: A useful test for anti-psychotic activity consists of measuring the reduction of spontaneous motor activity in animals.
Groups of 4 rats are treated orally with the test compound dissolved or suspended in starch vehicle at the maximum tolerated dose. At the estimated time of peak effect, the animals are placed singly into an Animax Activity Counter and the activity of each rat is recorded over a 5 minute period. The activity counts are compared to historical or parallel control values to determine significant increased or decreased locomotor activity.

[3] = "writhing syndrome" test for analgesic activity (phenyl p-quinone); format: in vivo, male Swiss albino mice; settings: 6.25 mg/kg oral; control approximately 30 per pair; active if 18 or less
Description: This method is based upon the reduction of the number of writhes following the intraperitoneal injection of one mg./kg. of body weight of phenyl p-quinone in male Swiss albino mice weighing 15-25 g. The syndrome is characterized by intermittent contractions of the abdomen, twisting and turning of the trunk, and extension of the hind legs beginning 3 to 5 minutes after injection of the phenyl p-quinone. The test compounds are administered orally at the indicated dose to groups of 2 mice each, 30 minutes before injection of the phenyl p-quinone.

[4] = Prevention of reserpine-induced hypothermia in rats; format: in vivo; settings: for ED50: Rattus norvegicus, oral, dose column in mg/kg, read-out: ED50 (95% C.L.)
Description: Groups of 5 rats were treated orally with graded doses of the test compounds. One hour later the animals were treated with reserpine (solubilized in propylene glycol and citric acid) at a dose of 5 mg/kg intraperitoneally. Rectal temperatures were measured using a YSI Telethermometer. Temperatures were recorded just prior to treatment, one hour later just prior to reserpine administration and at hourly intervals following reserpine administration for 5 hours. […]

Structure (SMILES): CCN1CCN(C2=Nc3ccccc3N(C)c3cscc32)CC1 [4-Methyl-10-(4-ethyl-1-piperazinyl)-4H-thieno[3,4-b][1,5]benzodiazepine]
- Number Responded/Number Treated ([1]; 3.13 mg/kg): 3/15
- Number Responded/Number Treated ([1]; 6.25 mg/kg): 10/30
- Number Responded/Number Treated ([1]; 12.5 mg/kg): 12/25
- Number Responded/Number Treated ([1]; 25.0 mg/kg): 10/25
- ED50 [1]: ~35 mg/kg

Structure (SMILES): CN1CCN(C2=Nc3ccc(Cl)cc3Nc3cscc32)CC1 [6-Chloro-10-(4-methyl-1-piperazinyl)-4H-thieno[3,4-b][1,5]benzodiazepine]
- ED50 (dose estimated to create reversible ptosis in 50% of the animals) (reversible ptosis test): 17 mg/kg
- ED50 [2]: 7.7 mg/kg
- No. of Writhes Per Pair [3]: 7 and 6

Structure (SMILES): CN(C)CCCN1c2ccccc2CCc2ccccc21 [Imipramine, reference compound]
- Percent of Animals Showing > Two Standard Deviations in Rectal Temperature Over Control Means ([4]; 0.20 mg/kg oral, 2 hours after reserpine): 0%
- Percent of Animals Showing > Two Standard Deviations in Rectal Temperature Over Control Means ([4]; 0.20 mg/kg oral, 3 hours after reserpine): 0%
- Percent of Animals Showing > Two Standard Deviations in Rectal Temperature Over Control Means ([4]; 0.20 mg/kg oral, 4 hours after reserpine): 0%
- Percent of Animals Showing > Two Standard Deviations in Rectal Temperature Over Control Means ([4]; 0.20 mg/kg oral, 5 hours after reserpine): 0%
- Percent of Animals Showing > Two Standard Deviations in Rectal Temperature Over Control Means ([4]; 0.39 mg/kg oral, 2 hours after reserpine): 0%
- Percent of Animals Showing > Two Standard Deviations in Rectal Temperature Over Control Means ([4]; 0.39 mg/kg oral, 3 hours after reserpine): 10%
- Percent of Animals Showing > Two Standard Deviations in Rectal Temperature Over Control Means ([4]; 0.39 mg/kg oral, 4 hours after reserpine): 0%
- Percent of Animals Showing > Two Standard Deviations in Rectal Temperature Over Control Means ([4]; 0.39 mg/kg oral, 5 hours after reserpine): 0%
- Percent of Animals Showing > Two Standard Deviations in Rectal Temperature Over Control Means ([4]; 0.78 mg/kg oral, 2 hours after reserpine): 21%
- Percent of Animals Showing > Two Standard Deviations in Rectal Temperature Over Control Means ([4]; 0.78 mg/kg oral, 3 hours after reserpine): 0%
- Percent of Animals Showing > Two Standard Deviations in Rectal Temperature Over Control Means ([4]; 0.78 mg/kg oral, 4 hours after reserpine): 0%
- Percent of Animals Showing > Two Standard Deviations in Rectal Temperature Over Control Means ([4]; 0.78 mg/kg oral, 5 hours after reserpine): 7%
- Percent of Animals Showing > Two Standard Deviations in Rectal Temperature Over Control Means ([4]; 1.56 mg/kg oral, 2 hours after reserpine): 40%
- Percent of Animals Showing > Two Standard Deviations in Rectal Temperature Over Control Means ([4]; 1.56 mg/kg oral, 3 hours after reserpine): 20%
- Percent of Animals Showing > Two Standard Deviations in Rectal Temperature Over Control Means ([4]; 1.56 mg/kg oral, 4 hours after reserpine): 20%
- Percent of Animals Showing > Two Standard Deviations in Rectal Temperature Over Control Means ([4]; 1.56 mg/kg oral, 5 hours after reserpine): 40%
- Percent of Animals Showing > Two Standard Deviations in Rectal Temperature Over Control Means ([4]; 3.13 mg/kg oral, 2 hours after reserpine): 100%
- Percent of Animals Showing > Two Standard Deviations in Rectal Temperature Over Control Means ([4]; 3.13 mg/kg oral, 3 hours after reserpine): 90%
- Percent of Animals Showing > Two Standard Deviations in Rectal Temperature Over Control Means ([4]; 3.13 mg/kg oral, 4 hours after reserpine): 80%
- Percent of Animals Showing > Two Standard Deviations in Rectal Temperature Over Control Means ([4]; 3.13 mg/kg oral, 5 hours after reserpine): 100%
- Percent of Animals Showing > Two Standard Deviations in Rectal Temperature Over Control Means ([4]; 6.25 mg/kg oral, 2 hours after reserpine): 100%
- Percent of Animals Showing > Two Standard Deviations in Rectal Temperature Over Control Means ([4]; 6.25 mg/kg oral, 3 hours after reserpine): 100%
- Percent of Animals Showing > Two Standard Deviations in Rectal Temperature Over Control Means ([4]; 6.25 mg/kg oral, 4 hours after reserpine): 100%
- Percent of Animals Showing > Two Standard Deviations in Rectal Temperature Over Control Means ([4]; 6.25 mg/kg oral, 5 hours after reserpine): 100%
- Percent of Animals Showing > Two Standard Deviations in Rectal Temperature Over Control Means ([4]; 12.5 mg/kg oral, 2 hours after reserpine): 100%
- Percent of Animals Showing > Two Standard Deviations in Rectal Temperature Over Control Means ([4]; 12.5 mg/kg oral, 3 hours after reserpine): 80%
- Percent of Animals Showing > Two Standard Deviations in Rectal Temperature Over Control Means ([4]; 12.5 mg/kg oral, 4 hours after reserpine): 100%
- Percent of Animals Showing > Two Standard Deviations in Rectal Temperature Over Control Means ([4]; 12.5 mg/kg oral, 5 hours after reserpine): 100%
- ED50 ([4]; 2 hours after reserpine): 1.2 mg/kg
- ED50 ([4]; 3 hours after reserpine): 2.2 mg/kg
- ED50 ([4]; 4 hours after reserpine): 2.2 mg/kg
- ED50 ([4]; 5 hours after reserpine): 1.3 mg/kg
- Number Responded/Number Treated ([1]; 0.78 mg/kg): 1/10
- Number Responded/Number Treated ([1]; 1.56 mg/kg): 2/10
- Number Responded/Number Treated ([1]; 3.13 mg/kg): 4/10
- Number Responded/Number Treated ([1]; 6.25 mg/kg): 7/10
- Number Responded/Number Treated ([1]; 12.5 mg/kg): 7/10
- Number Responded/Number Treated ([1]; 25.0 mg/kg): 9/10
- ED50 [1]: 4.4 mg/kg
